Experimental data as given in patent US20100267637A1, “TREATMENT OF MELANOMA WITH ALPHA THYMOSIN PEPTIDES IN COMBINATION WITH A KINASE INHIBITOR” (SciClone Pharmaceuticals, Inc., priority 2007, published 2010).
Where no end group is shown, it is not given here.

Test system: murine B16 melanoma cells
Experiment: Anti-tumor effect: tumor size / tumor volume in mice bearing subcutaneous B16 melanoma
Type: in vivo, C57BL/6 mice
Parameters: key to Tumor measurement L (length) / Tumor measurement W (width): The sign “—” indicates that tumor does not reach a measurable size
Details: for Tumor Volume (cm^3) (Mean ± SD): group mean; for PI (TV), percent inhibition of tumor volume: vs vehicle
Experimental: The toxic effects of the dosing regimens were also monitored. […] Meanwhile 9H10 was given in two groups via i.p. on Day 3, 6 and 9. […] Tumor volume and body weight were measured every three days, and tumor weights were measured on Day 16 at the end of the study.
As per aseptic tissue culture procedures, one vial of B16 melanoma cells was removed from the liquid nitrogen stock, and placed into a 37° C. water bath. Gentle swirling was conducted until the content of the vial was thawed. Using tissue culture/sterile procedures, the cells were immediately centrifuged with a TD5A-WS centrifuge at 1000 rpm, 20-25° C., 5 min. After centrifugation, the cells were suspended in 0.1 to 0.5 mL normal saline (NS) and subcutaneously injected into 10 mice (0.1 mL/mouse, about 1×10^6 cells). After 7-10 days, when the tumor diameter was approximately 1 cm, the animals were euthanized with CO2 overdose and the tumors excised. The procedure was repeated with 20 mice to generate a sufficient number of B16 melanoma cells with adequate transplantability.
On the day of tumor implantation, approximately 1×10^6 cells in 0.1 mL were subcutaneously injected on the right axillary area of each mouse. The day of tumor implantation was defined as Day 0.
On Day 3, the animals were randomly assigned into nine different weight-matched and tumor-size-matched groups. Dosing was started on Day 3 using the regimen according to Table 2.
From Day 1 to Day 15, mortality and moribundity were checked twice daily, the body weights were recorded once every 3 days, and tumors were measured using a caliper once every 3 days. At the end of the study (Day 16), the animals were euthanized by CO2 asphyxiation, and the tumors were excised and weighed.
Based on the tumor size, the tumor volume (TV) was calculated with the formula: [TV=(Length×Width×Width)/2]. And the percent inhibition (PI) of TV (PITV) was calculated according to the equation below:
PITV(%)=(TV vehicle−TVdrug treated)/TV vehicle×100
Inter-group comparison was performed in terms of tumor volume, tumor weight and body weight, using a student's t test. P values of less than 0.05 were considered to be statistically significant.

Thymosin Alpha-1 (Ac-SDAAVDTSSEITTKDLKEKKEVVEEAEN; ends and bridges not checked; UniProt P06454 2-29, looked up) [TA-1, 28 amino acid peptide, immunomodulator; test article (SciClone), 6 mg/kg s.c. daily]
50.00%: PI (TV), percent inhibition of tumor volume (Day 3)
0.0005 cm^3: Tumor volume (Day 3, animal F4) | Tumor volume (Day 9, animal F1) | Tumor volume (Day 9, animal F2) | Tumor volume (Day 9, animal F3) | Tumor volume (Day 9, animal M1)
—: Tumor measurement L (length) (Day 3, animal F1) | Tumor measurement W (width) (Day 3, animal F1) | Tumor measurement L (length) (Day 3, animal F2) | Tumor measurement W (width) (Day 3, animal F2) | Tumor measurement L (length) (Day 3, animal F3) | Tumor measurement W (width) (Day 3, animal F3) | Tumor measurement L (length) (Day 3, animal F5) | Tumor measurement W (width) (Day 3, animal F5) | Tumor measurement L (length) (Day 3, animal M1) | Tumor measurement W (width) (Day 3, animal M1) | Tumor measurement L (length) (Day 3, animal M2) | Tumor measurement W (width) (Day 3, animal M2) | Tumor measurement L (length) (Day 3, animal M3) | Tumor measurement W (width) (Day 3, animal M3) | Tumor measurement L (length) (Day 3, animal M4) | Tumor measurement W (width) (Day 3, animal M4) | Tumor measurement L (length) (Day 3, animal M5) | Tumor measurement W (width) (Day 3, animal M5) | Tumor measurement L (length) (Day 6, animal F1) | Tumor measurement W (width) (Day 6, animal F1) | Tumor measurement L (length) (Day 6, animal F2) | Tumor measurement W (width) (Day 6, animal F2) | Tumor measurement L (length) (Day 6, animal F3) | Tumor measurement W (width) (Day 6, animal F3) | Tumor measurement L (length) (Day 6, animal F4) | Tumor measurement W (width) (Day 6, animal F4) | Tumor measurement L (length) (Day 6, animal F5) | Tumor measurement W (width) (Day 6, animal F5) | Tumor measurement L (length) (Day 6, animal M1) | Tumor measurement W (width) (Day 6, animal M1) | Tumor measurement L (length) (Day 6, animal M2) | Tumor measurement W (width) (Day 6, animal M2) | Tumor measurement L (length) (Day 6, animal M3) | Tumor measurement W (width) (Day 6, animal M3) | Tumor measurement L (length) (Day 6, animal M4) | Tumor measurement W (width) (Day 6, animal M4) | Tumor measurement L (length) (Day 6, animal M5) | Tumor measurement W (width) (Day 6, animal M5)
0.000 ± 0.0002 cm^3: Tumor Volume (cm^3) (Mean ± SD) (Day 3)
0.10 cm: Tumor measurement L (length) (Day 3, animal F4) | Tumor measurement W (width) (Day 3, animal F4) | Tumor measurement L (length) (Day 9, animal F1) | Tumor measurement W (width) (Day 9, animal F1) | Tumor measurement L (length) (Day 9, animal F2) | Tumor measurement W (width) (Day 9, animal F2) | Tumor measurement L (length) (Day 9, animal F3) | Tumor measurement W (width) (Day 9, animal F3) | Tumor measurement L (length) (Day 9, animal M1) | Tumor measurement W (width) (Day 9, animal M1)
0.0000 cm^3: Tumor volume (Day 3, animal F1) | Tumor volume (Day 3, animal F2) | Tumor volume (Day 3, animal F3) | Tumor volume (Day 3, animal F5) | Tumor volume (Day 3, animal M1) | Tumor volume (Day 3, animal M2) | Tumor volume (Day 3, animal M3) | Tumor volume (Day 3, animal M4) | Tumor volume (Day 3, animal M5) | Tumor volume (Day 6, animal F1) | Tumor volume (Day 6, animal F2) | Tumor volume (Day 6, animal F3) | Tumor volume (Day 6, animal F4) | Tumor volume (Day 6, animal F5) | Tumor volume (Day 6, animal M1) | Tumor volume (Day 6, animal M2) | Tumor volume (Day 6, animal M3) | Tumor volume (Day 6, animal M4) | Tumor volume (Day 6, animal M5) | Tumor volume (Day 9, animal F5)
0.0040 cm^3: Tumor volume (Day 9, animal F4)
100.00%: PI (TV), percent inhibition of tumor volume (Day 6)
0.20 cm: Tumor measurement L (length) (Day 9, animal F4) | Tumor measurement W (width) (Day 9, animal F4)
0.000 ± 0.0000 cm^3: Tumor Volume (cm^3) (Mean ± SD) (Day 6)
